We go through four molecules from US20040234517A1, “Compositions and methods for diagnosing and treating asthma or other allergic or inflammatory diseases” (WYETH, priority 2003, published 2004).

Test [1] concerns arginase. Kind of test: arginase activity in internal anal sphincter.
Test [2] deals with arginase. The experiment in a line: arginase activity of murine macrophages (hydrolysis of L-arginine to L-ornithine). It is filed as cell-based. Conditions: unstimulated murine macrophages. The text has this:
Stimulation of murine macrophages with interferon-gamma and lipopolysaccharide (IFN-gamma+LPS) results in clear expression of an inducible NOS (iNOS) and to an increase in arginase activity.

The target in another test is iNOS (Mus musculus, UniProt P29477). Conditions: cited from earlier work.
The target in test [3] is arginase. The following applies: IFN-gamma+LPS-stimulated macrophage; cited from earlier work.
The target of test [4] is arginase. The following applies: read-out: IC50 hydrolysis of L-arginine to L-ornithine; unstimulated murine macrophages (Tenu et al.); cited from earlier work.
Test [5] concerns arginase. The following applies: intact cells; cited from earlier work.
Test [6] deals with IL-13. Kind of test: OVA-challenge asthma model: mucus production and airway hyperresponsiveness. Conditions: FIG. 12 legend. It is filed as in vivo, mouse. An excerpt: It is generally accepted that allergic asthma is initiated by an inappropriate inflammatory reaction to airborne allergens. […] One murine model of asthma involves sensitization of the animal to ovalbumin (OVA) followed by intratracheal delivery of the OVA challenge. […] The cytokine IL-13, expressed by basophils, mast cells, activated T cells and NK cells, plays a central role in the inflammatory response to OVA in mouse lungs. […] Thus, IL-13 mediated signaling is sufficient to elicit all four asthma-related pathophysiological phenotypes and is required for the hypersecretion of mucous and induced AHR in the mouse model.
FIG. 12 is a graphical representation showing that ARG1 mRNA expression increases following direct pulmonary instillation of rIL-13 or intratracheal Ovalbumin allergen challenge. Blockade of IL-13 signaling by administration of sIL13Rα2.Fc inhibits 67% of induced Arg1 mRNA expression. Blockade of IL-13 using the soluble receptor sIL13Rα2.Fc inhibits the allergen induced mucus production and airway hyperresponsiveness (AHR).

Test [7] has as its system IL-13. Kind of test: lung ARG1 mRNA expression after ovalbumin allergen challenge. Format: in vivo, Balb/c mice. The following applies: mouse lung. The method, then:
Balb/c mice were immunized by an intraperitoneal (i.p.) injection of 10 μg of OVA (Sigma, St. Louis, Mo.) in 200 μl of PBS on day 0. On days 14 and 25 mice were anesthetized with a mixture of ketamine and xylazine (45 and 8 mg/kg, respectively) and challenged intratracheally with 50 μl of a 1.5% solution of OVA or an equivalent volume of PBS. Mice were injected i.p. either with 100 μl of PBS, hIgG (400 μg/ml) or sIL-13α2-Fc (400 μg/ml) on days 24, 25 and 27. Purification of hIgG was carried according to Urban et al., Immunity 8(2): […], 1998. Lungs were collected and snap frozen for RNA isolation on day 28.
To identify changes in mRNA concentration dependent on IL-13 mediated signal transduction, two of the OVA-challenged mice were treated with three intraperitoneal injections of the soluble IL-13 receptor fusion protein, sIL-13Rα2-Fc, prior to and during the course of the allergic challenge. As control for the Fc-moiety of the receptor fusion protein, two of the OVA-challenged mice were similarly treated with intraperitoneal administration of hIgG. […]
Balb/C-treated and untreated mice were sensitized to OVA, treated with PBS, rIL-13 or sIL13Rα2.Fc as described in FIG. 1. Total lung RNA was isolated and analyzed for ARG1 expression as described in Example 2. The mRNA frequency is expressed as parts per million.

The subject of test [8] is IL-13. The following applies: mouse model, background; cited from earlier work.

Where two headings read alike, the source gives them in different places.

As to `N[C@@H](CCCCB(O)O)C(=O)O` [ABH, 2(S)-amino-6-boronohexanoic acid], in the test with arginase [1], the “potency relative to L-NOHA in inhibiting arginase activity” value is on record as “approximately 250 times”.
In general, IC50 refers to the point on the concentration scale where inhibition reaches its midpoint. `N=C(NO)NCC[C@H](N)C(=O)O` [nor-NOHA, N(omega)-hydroxy-L-nor-arginine]: in the test on arginase [2], the “potency relative to L-NOHA” value is recorded as “about 40 fold”. Further, the “substrate or inhibitor for iNOS” value on iNOS is recorded as “neither a substrate nor an inhibitor”. Further, the IC50 at arginase [3] was 10 µM; on arginase [4], 12 µM.
`NCCC[C@](N)(C(=O)O)C(F)F` [DFMO, α-difluoromethylornithine]: in the test with arginase [5], the “effect on the flux of L-arginine through arginase” value is on record as “inhibitive effect”.

B1: sIL13Rα2.Fc: soluble IL-13 receptor fusion protein, a soluble IL-13 antagonist (protein)
chain: DTEIKVNPPQDFEIVDPGYLGYLYLQWQPPLSLDHFKECTVEYELKYRNIGSETWKTIITKNLHYKDGFDLNKGIEAKIHTLLPWQCTNGSEVQSSWAETTYWISPQGIPETKVQDMDCVYYNWQYLLCSWKPGIGVLLDTNYNLFYWYEGLDHALQCVDYIKADGQNIGCRFPYLEASDYKDFYICVNGSSENKPIRSSYFTFQLQNIVKPLPPVYLTFTRESSCEIKLKWSIPLGPIPARCFDYEIEIREDDTTLVTATVENETYTLKTTNETRQLCFVVRSKVNIYCSDDGIWSEWSDKQCWEGEDLSKKTLLR
modifications: left off: a dimerising Fc or GST
notes: soluble IL-13 receptor fusion protein, a soluble IL-13 antagonist
B1: in the test with IL-13 [6], the “allergen induced mucus production and airway hyperresponsiveness (AHR)” value is “inhibits”. Moreover, in the test with IL-13 [7], the “inhibition of induced Arg1 mRNA expression” value stood at 67%. The “OVA-challenge induced goblet cell mucus synthesis and AHR to acetylcholine” value in the test on IL-13 [8] is “completely blocked”.
